In ChEMBL document CHEMBL1201862, “PubChem BioAssay data set” (2004):
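Values below derive from 48-hour exposures of cells grown in 96-well plates, with endpoints linearly interpolated between the two concentrations bracketing the appropriate inhibition level. Abbreviation: GI50, concentration required for 50% inhibition of growth.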 Activity calls are given as the source filed them. Rule as the data show it: active = GI50 up to about 1.1 µM and inactive = higher.

Legend:
Test in all cases: inhibition of tumour cell growth, NCI panel, 48 h
[1] = test system: A498
[2] = test system: CCRF-CEM
[3] = test system: DU-145
[4] = test system: HL-60
[5] = test system: IGROV-1
[6] = test system: MCF7
[7] = test system: MDA-MB-231
[8] = test system: MDA-MB-435
[9] = test system: MOLT-4
[10] = test system: NCI-H23
[11] = test system: NCI-H460
[12] = test system: OVCAR-4
[13] = test system: OVCAR-5
[14] = test system: SK-MEL-28
[15] = test system: SK-MEL-2
[16] = test system: SN12C
[17] = test system: UACC-257
[18] = test system: A549
[19] = test system: M14

SMILES | GI50 [1] | GI50 [2] | GI50 [3] | GI50 [4] | GI50 [5] | GI50 [6] | GI50 [7] | GI50 [8] | GI50 [9] | GI50 [10] | GI50 [11] | GI50 [12] | GI50 [13] | GI50 [14] | GI50 [15] | GI50 [16] | GI50 [17] | GI50 [18] | GI50 [19]
O=C1CCc2ccccc2O1 [DIHYDROCOUMARIN] | > 100 µM (inactive) | > 100 µM (inactive) | > 100 µM (inactive) | > 100 µM (inactive) | > 100 µM (inactive) | > 100 µM (inactive) | > 100 µM (inactive) | > 100 µM (inactive) | > 100 µM (inactive) | > 100 µM (inactive) | > 100 µM (inactive) | > 100 µM (inactive) | > 100 µM (inactive) | > 100 µM (inactive) | > 100 µM (inactive) | > 100 µM (inactive) | > 100 µM (inactive) | – | –
CCOC(=O)/C=C(/C(=O)OCC)n1cc(C)c(=O)n(Cc2cn(CCCCOC(C)=O)nn2)c1=O | – | 0.363 µM (active) | 34.4 µM (inactive) | – | 15.2 µM (inactive) | 6.3 µM (inactive) | 27.6 µM (inactive) | 10.7 µM (inactive) | 5.05 µM (inactive) | 16.5 µM (inactive) | 10.7 µM (inactive) | 19.7 µM (inactive) | 18.1 µM (inactive) | 13.4 µM (inactive) | 20.1 µM (inactive) | 23.6 µM (inactive) | 19.8 µM (inactive) | 27 µM (inactive) | –
N=C(N)N/N=C\c1c(-c2ccccc2)nc2sccn12 | 19.5 µM (inactive) | 21.6 µM (inactive) | 19 µM (inactive) | 25.8 µM (inactive) | 13.6 µM (inactive) | – | 12.7 µM (inactive) | 15.6 µM (inactive) | 18.5 µM (inactive) | 12.5 µM (inactive) | 16.2 µM (inactive) | 15.8 µM (inactive) | 16.9 µM (inactive) | 15.7 µM (inactive) | 15.1 µM (inactive) | 15.4 µM (inactive) | 13.4 µM (inactive) | 17.5 µM (inactive) | –
COc1ccc2oc3c4c2c1CCC4CCC3=O (configuration not stated) | 6.75 µM (inactive) | > 100 µM (inactive) | – | > 100 µM (inactive) | > 100 µM (inactive) | – | – | – | 52.8 µM (inactive) | > 100 µM (inactive) | > 100 µM (inactive) | 33 µM (inactive) | > 100 µM (inactive) | > 100 µM (inactive) | > 100 µM (inactive) | > 100 µM (inactive) | 16.8 µM (inactive) | > 100 µM (inactive) | > 100 µM (inactive)
O=C1/C(=N/c2ccc(Nc3ccccc3)cc2)Oc2ccccc21 | 5.69 µM (inactive) | 1.86 µM (inactive) | 8.47 µM (inactive) | 1.99 µM (inactive) | 3.06 µM (inactive) | 2.55 µM (inactive) | 2.27 µM (inactive) | 1.82 µM (inactive) | 2.13 µM (inactive) | 2.04 µM (inactive) | 5.31 µM (inactive) | 2.33 µM (inactive) | 2.54 µM (inactive) | 4.19 µM (inactive) | 3.3 µM (inactive) | 2.02 µM (inactive) | 2.42 µM (inactive) | 3.51 µM (inactive) | 2.33 µM (inactive)
COC(=O)CCC(NC(=S)N/N=C(\C)c1cnc2ccccc2n1)C(=O)OC (configuration not stated) | 92.9 µM (inactive) | 3.29 µM (inactive) | – | 2.33 µM (inactive) | 35.4 µM (inactive) | – | – | – | 15.6 µM (inactive) | 58.3 µM (inactive) | 45.9 µM (inactive) | 25.9 µM (inactive) | 16.3 µM (inactive) | 40.9 µM (inactive) | 56.8 µM (inactive) | 60.1 µM (inactive) | 49.5 µM (inactive) | 34.8 µM (inactive) | 30.8 µM (inactive)
COc1ccc(/C=C\c2cc(OC)c3c(c2)OCO3)c(O)c1O | 8.3 µM (inactive) | 2.98 µM (inactive) | – | 2.8 µM (inactive) | 4.71 µM (inactive) | – | – | – | 6.35 µM (inactive) | 4.98 µM (inactive) | 5.37 µM (inactive) | 4.52 µM (inactive) | 26.7 µM (inactive) | 5.65 µM (inactive) | 8.53 µM (inactive) | 15 µM (inactive) | 14.1 µM (inactive) | 9.04 µM (inactive) | 3.56 µM (inactive)
CC(=O)OC12c3ccccc3-c3ccccc3C1C1C(=O)OC(=O)C12 (configuration not stated) | > 10 µM (inactive) | > 10 µM (inactive) | > 10 µM (inactive) | > 10 µM (inactive) | > 10 µM (inactive) | > 10 µM (inactive) | > 10 µM (inactive) | > 10 µM (inactive) | > 10 µM (inactive) | > 10 µM (inactive) | > 10 µM (inactive) | > 10 µM (inactive) | > 10 µM (inactive) | > 10 µM (inactive) | > 10 µM (inactive) | > 10 µM (inactive) | > 10 µM (inactive) | – | > 10 µM (inactive)
Cc1ccc(Oc2ccc(C)cc2N)cc1 | > 100 µM (inactive) | 41.6 µM (inactive) | – | 33.9 µM (inactive) | > 100 µM (inactive) | – | – | – | 53 µM (inactive) | 94.4 µM (inactive) | > 100 µM (inactive) | 68.9 µM (inactive) | 68.4 µM (inactive) | > 100 µM (inactive) | > 100 µM (inactive) | 97.7 µM (inactive) | 80.9 µM (inactive) | > 100 µM (inactive) | > 100 µM (inactive)
C/C=C/OC1C(C2COC(C)(C)O2)OC2OC(C)(C)OC21 (configuration not stated) | > 100 µM (inactive) | > 100 µM (inactive) | > 100 µM (inactive) | > 100 µM (inactive) | > 100 µM (inactive) | > 100 µM (inactive) | > 100 µM (inactive) | > 100 µM (inactive) | > 100 µM (inactive) | > 100 µM (inactive) | > 100 µM (inactive) | > 100 µM (inactive) | > 100 µM (inactive) | > 100 µM (inactive) | > 100 µM (inactive) | – | > 100 µM (inactive) | > 100 µM (inactive) | > 100 µM (inactive)
CC1(C)N=c2c(ncn2CCO)=C(C(N)=O)N1 | > 100 µM (inactive) | > 100 µM (inactive) | > 100 µM (inactive) | > 100 µM (inactive) | > 100 µM (inactive) | > 100 µM (inactive) | > 100 µM (inactive) | > 100 µM (inactive) | – | > 100 µM (inactive) | > 100 µM (inactive) | > 100 µM (inactive) | > 100 µM (inactive) | > 100 µM (inactive) | – | > 100 µM (inactive) | > 100 µM (inactive) | > 100 µM (inactive) | > 100 µM (inactive)
Cc1ccc(S(=O)(=O)NNC(=O)Nc2cccc(C(F)(F)F)c2)cc1 | > 100 µM (inactive) | 96.2 µM (inactive) | > 100 µM (inactive) | > 100 µM (inactive) | > 100 µM (inactive) | 97.1 µM (inactive) | > 100 µM (inactive) | > 100 µM (inactive) | > 100 µM (inactive) | > 100 µM (inactive) | > 100 µM (inactive) | 0.0653 µM (active) | > 100 µM (inactive) | > 100 µM (inactive) | > 100 µM (inactive) | > 100 µM (inactive) | 57.9 µM (inactive) | > 100 µM (inactive) | > 100 µM (inactive)
CC1(c2ccc(F)cc2)C2C(=O)NC(=O)C1C(=O)NC2=O (configuration not stated) | > 100 µM (inactive) | > 100 µM (inactive) | – | > 100 µM (inactive) | > 100 µM (inactive) | – | – | – | > 100 µM (inactive) | > 100 µM (inactive) | > 100 µM (inactive) | > 100 µM (inactive) | > 100 µM (inactive) | > 100 µM (inactive) | > 100 µM (inactive) | > 100 µM (inactive) | > 100 µM (inactive) | > 100 µM (inactive) | > 100 µM (inactive)
C#CCN(N=O)C(=O)NC(CCCCNC(=O)OCc1ccccc1)C(=O)OCc1ccccc1 (configuration not stated) | > 100 µM (inactive) | 17.5 µM (inactive) | – | 17.3 µM (inactive) | > 100 µM (inactive) | – | – | – | 16.8 µM (inactive) | 67.6 µM (inactive) | 61 µM (inactive) | 24.7 µM (inactive) | 24.5 µM (inactive) | 26.1 µM (inactive) | 37.8 µM (inactive) | 28.4 µM (inactive) | 28.1 µM (inactive) | 76.2 µM (inactive) | 21.4 µM (inactive)
COc1ccccc1C(O)(c1ccccc1)C(O)(c1ccccc1)c1ccccc1OC (configuration not stated) | > 100 µM (inactive) | > 100 µM (inactive) | – | 9.82 µM (inactive) | > 100 µM (inactive) | – | – | – | 48.1 µM (inactive) | > 100 µM (inactive) | > 100 µM (inactive) | > 100 µM (inactive) | > 100 µM (inactive) | > 100 µM (inactive) | > 100 µM (inactive) | > 100 µM (inactive) | > 100 µM (inactive) | > 100 µM (inactive) | > 100 µM (inactive)
CCOP(=O)(OCC)C1(O)CC(n2cc(C)c(=O)[nH]c2=O)OC1CO (configuration not stated) | > 100 µM (inactive) | – | > 100 µM (inactive) | > 100 µM (inactive) | > 100 µM (inactive) | > 100 µM (inactive) | – | > 100 µM (inactive) | – | > 100 µM (inactive) | > 100 µM (inactive) | > 100 µM (inactive) | > 100 µM (inactive) | > 100 µM (inactive) | > 100 µM (inactive) | > 100 µM (inactive) | > 100 µM (inactive) | > 100 µM (inactive) | > 100 µM (inactive)
CCOP(=O)(OCC)C(C(=O)OC)C(=O)C(=O)Nc1c(C)cc(Br)cc1C (configuration not stated) | > 100 µM (inactive) | > 100 µM (inactive) | – | > 100 µM (inactive) | > 100 µM (inactive) | – | – | – | > 100 µM (inactive) | > 100 µM (inactive) | > 100 µM (inactive) | > 100 µM (inactive) | > 100 µM (inactive) | > 100 µM (inactive) | > 100 µM (inactive) | > 100 µM (inactive) | > 100 µM (inactive) | > 100 µM (inactive) | > 100 µM (inactive)
